In article PMC12668310, “High‐Throughput Synthesis and Screening of a Cyanimide Library Identifies Selective Inhibitors of ISG15‐Specific Protease mUSP18” (Angewandte Chemie (International Ed. in English), 2025):

Target: T1, mUSP18 (Mus musculus, UniProt Q9WTV6)
T1 construct: (46-368); His-tag (N); made in house
T1 sequence (Q9WTV6 46-368): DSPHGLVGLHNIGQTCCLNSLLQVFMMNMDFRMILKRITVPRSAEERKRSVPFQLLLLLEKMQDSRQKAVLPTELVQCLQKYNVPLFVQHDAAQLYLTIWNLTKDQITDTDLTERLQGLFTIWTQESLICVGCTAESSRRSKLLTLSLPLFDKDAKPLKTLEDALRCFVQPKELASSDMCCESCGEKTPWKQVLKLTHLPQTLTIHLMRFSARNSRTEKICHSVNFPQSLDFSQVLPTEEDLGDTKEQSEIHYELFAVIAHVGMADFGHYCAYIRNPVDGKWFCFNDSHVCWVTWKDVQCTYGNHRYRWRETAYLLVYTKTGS
Assay: Covalent complex formation, intact protein mass spectrometry
Format: binding, murine
Conditions: 1.4 μM mUSP18, 14 µM compound, 30 min
Protocol: We further explored the potential of our mUSP18 hits. […] Based on previous data, these cyanimides likely bind to mUSP18 in a covalent manner. Indeed, intact protein mass spectrometry analysis confirmed the formation of a covalent stoichiometric mUSP18‐BB07CA902 complex, showing a mass difference of 311 Da, which corresponds to the addition of exactly one molecule of BB07CA902 (Figures 5c, S9). […] (Figure S9).
High-throughput screening
The screens were performed at room temperature in “flat bottom, non-treated, black […]
µM. The compounds (10 nL each) were transferred from the 1 mM daughter plates to the […]
Four wells containing DMSO
(10 nL) and four wells containing NEM (10 mM final concentration) were used in each plate […]
The percentage inhibition was calculated for each well using the […]
Where FIx is the fluorescence intensity of each well, FIpos is the average fluorescence intensity of the positive (NEM) control wells, and FIneg is the average fluorescence intensity of the negative (DMSO) control wells. […]
Samples were then diluted 3-fold with water and analyzed by mass spectrometry by injecting 2 μL into a Waters XEVO-G2 XS Q-TOF mass spectrometer equipped with an electrospray ion source in positive mode (capillary voltage 1.2 kV, desolvation gas flow 900 L/h, T = 60 °C) with a resolution of R = 26,000. […]

SMILES: Cc1cc(C(=O)N[C@H]2C[C@@H]3CN(C#N)C[C@@H]3C2)ccc1C(C)C [BB07CA902]
- mass difference of covalent stoichiometric mUSP18-inhibitor complex: 311 Da
